Tests used:
[1] = Plasma pharmacokinetics after single oral administration to mice; type: in vivo; conditions: male, CD1, mouse, single oral dose (Dose_PO: 10.0-90.0 mg/kg)
Description: The purpose of this study was to evaluate plasma and tissue exposure of the following compounds after a single oral administration to mice: • 7-(3-(N-(4-fluoro-2,6-dimethylphenyl)sulfamoyl)phenyl)heptanoic acid (indicated below as DFL23806), • 7-(3-(N-(4-chloro-2,6-dimethylphenyl)sulfamoyl)phenyl)heptanoic acid (indicated below as DFL23914) • 7-(3-(N-(2,6-dimethyl-4-(trifluoromethyl)phenyl)sulfamoyl)phenyl)heptanoic acid (indicated below as DFL23922) • 7-(3-(N-(6-fluoro-4-methyl-[1,1′-biphenyl]-3-yl)sulfamoyl)phenyl)heptanoic acid (indicated below as DFL23916) • 7-(3-(N-(5-fluoro-3-methyl-[1,1′-biphenyl]-2-yl)sulfamoyl)phenyl)heptanoic acid (indicated below as DFL23917) • 7-(3-{[4-fluoro-2-methyl-5-(thiophen-2-yl)phenyl]sulfamoyl}phenyl)heptanoic acid (indicated below as DFL24102) […]
A retro-orbital, composite blood sampling at pre-dose or after dosing at 30 min, 1, 2, 6, 8 and 24 hours (three mice/time point) was carried out for the plasma pharmacokinetic assessment. Blood samples were collected in heparinized collection tubes. Samples were taken immediately onto ice and kept cool until centrifugation (10000 g for 3 minutes at about +4° C.). About 50 μL of plasma were stored in a freezer at −80° C. pending analysis.
After samples collection, bioanalysis for concentrations of the test compounds were done using HPLC-MS/MS methods and pharmacokinetic analysis of the compounds in plasma and tissues was performed according to standard non-compartmental approach using Watson system (v 7.6, Thermo Fisher Scientific Waltham, MA, USA) on mean concentration data.

GPR40 = target: T1, GPR40 (Mus musculus, UniProt Q76JU9); test: Co-immunoprecipitation of β-arrestin 2 with GPR40 in colon lysates of DSS mice; type: in vivo; conditions: pooled colon lysates, day 39; compared to DSS or DSS+vehicle
T1 construct: Colon lysates (˜900 μg proteins) from 6 mice of each experimental group were pooled; from tissue; host or cells: mouse colon (DSS colitis model)
Protocol: The efficiency of DFL in activating the GPR120 and/or GPR40 receptors was tested.
Agonist-induced GPR120 can engage multiple signalling pathways to regulate distinct physiological outcomes. After ligand binding, B-arrestins, such as B-arrestin 2 can associate with the cytoplasmic domains of GPR120 and couple the receptor to specific downstream signaling pathways (FIG. 9). For this reason, we verified the agonist efficiency in activating GPR120 and GPR40 by immunoprecipitation. Colon lysates (˜900 μg proteins) from 6 mice of each experimental group were pooled, precleared with protein A/G plus-agarose (Santa Cruz) and then incubated with the antibody used for immunoprecipitation (anti-GPR120 or anti-GPR40, Abcam) at 4° C. for 16 h, followed by incubation with protein A/G plus-agarose for 5 h. The agarose beads were then collected by centrifugation, washed four times with lysis buffer, and heated to 95° C. for 5 min after adding Laemmli buffer. The resulting immunoprecipitates were separated by SDS-PAGE and probed with the anti-β-arrestin 2 antibody (Santa Cruz).
Upon western blotting, a densitometric analysis of the blots was performed using Image J. FIGS. 10 and 11 show the ratio between co-immunoprecipitated β-arrestin 2 and GPR120 (FIG. 10) or GPR40 levels (FIG. 11) and the results of the blotting.

DSS-induced colitis = test: Mouse model of Dextran Sodium Sulfate-induced colitis; type: in vivo, female C57/B16 mice; conditions: day 39
Description: A mouse model of colitis induced by administration of Dextran Sodium Sulfate (DSS) (Wirtz S. et al. Nature Protocols; Volume: 2, Issue: 3 Pages: 541-546; 2007) was used to study the therapeutic effect of oral administration of DFL23806 on colitis.
In details, 8- to 12-week-old female C57/B16 mice were subjected to 3 oral cycles of 2.5% Dextran Sodium Sulfate (DSS) in drinking water (molecular mass, 40 kDa; MP Biomedicals), each cycle characterized by 7 days of DSS administration followed by 7 days of filter-purified water.
From day 3 of DSS administration, the mice were divided in 4 experimental groups, each receiving the treatment specified below: • Group 1: DSS (n=8)
No treatment, used as negative control. • Group 2: DSS+Vehicle (n=8)
Treated with 20% v/v Dimethyl Sulfoxide (DMSO) and 80% v/v Phosphate Buffered Saline (PBS), 0.1 M, pH 8 (Vehicle), used as a negative control. • Group 3: DSS+DFL 90 mg/kg (n=8)
Treated with DFL23806 dissolved in Vehicle, at the dosage of 90 mg/kg once a day. • Group 4: DSS+5-ASA 60 mg/kg (n=8)
Treated with 5-aminosalicylic acid (5-ASA) in Vehicle, at the dosage of 60 mg/Kg once a day, used as reference positive control.
Vehicle, DFL23806 and 5-ASA were administered daily, in the morning, by oral gavage, using plastic sterile feeding tubes 20 ga×30 mm. All mice were sacrificed on day 39.
A DAI score was established based on a scale that considers different parameters characterizing experimental colitis induction and progression (R S Walmsley et al. Gut 1998; 43:29-32).
Body weight, presence of gross blood in the feces, and stool consistency were recorded every 2 days. In details, the DAI was determined at each time point by scoring changes in weight loss (0=none, 1=1%-5%, 2=5%-10%, 3=10%-20%, 4=>20%); stool consistency (0=normal, 2=loose, 4=diarrhea); and rectal bleeding (0=normal, 2=occult bleeding, 4=gross bleeding).
Mice were sacrificed at day 39, colon were collected and colon lengths measured for each mouse, as additional parameter of intestinal inflammation.
The day of sacrifice (day 39), mice were anesthetized with 2% isoflurane and subjected to endoscopy, to confirm the inflammatory grade. The experimental endoscopy setup, denoted “Coloview system”, consisted of a miniature endoscope (scope 1.9 mm outer diameter), a xenon light source, a triple chip camera, and an air pump (all from Karl Storz, Tuttlingen, Germany) to achieve regulated inflation of the mouse colon. The endoscopic procedure was viewed on a colour monitor and a modified murine endoscopic index score of colitis severity was assigned on the basis of colon translucency (0-3 points), granular features of the mucosa (0-3 points), morphology of the vascular pattern (0-4 points), and the presence of fibrin (0-4 points), as previously described by Dr. D'Alessio (D'Alessio, S. et al. J. Clin. Invest. 124, 3863-3878; 2014) leading to a cumulative score between 0 (no signs of inflammation) and […] (endoscopic signs of very severe inflammation).
Histological analysis has been performed by an expert pathologist, in a blinded fashion, to grade the intestinal inflammation. More in details, colons of colitic mice in the various experimental groups have been evaluated for histological analyses using […] paraffin-embedded sections, stained with hematoxylin (Dako) and eosin (Diapath). A blinded pathologist evaluated the degree of inflammatory cell infiltration and mucosal damage, using the RACHMILEWITZ score (Table 1) (Rachmilewitz, D. et al. Gastroenterology 122, 1428-1441; 2002).

[2] = colon, DFL 90 mg/kg, 5-ASA 60 mg/kg, compared with DSS+Vehicle
[3] = DFL23806 90 mg/kg, 5-ASA 60 mg/kg oral once a day, compared to DSS and DSS+Vehicle

T1 sequence (Q76JU9 whole entry): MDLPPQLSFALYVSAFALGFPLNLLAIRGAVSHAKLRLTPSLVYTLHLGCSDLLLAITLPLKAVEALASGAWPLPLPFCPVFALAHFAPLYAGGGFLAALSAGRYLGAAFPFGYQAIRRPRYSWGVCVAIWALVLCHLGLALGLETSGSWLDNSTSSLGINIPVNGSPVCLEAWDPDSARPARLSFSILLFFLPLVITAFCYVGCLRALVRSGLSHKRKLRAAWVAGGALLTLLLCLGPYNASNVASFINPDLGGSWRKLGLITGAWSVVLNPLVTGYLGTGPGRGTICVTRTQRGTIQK

| Compound | AUC(0-inf) [1] | AUC(0-t) [1] | Cmax [1] | Tmax [1] | half-life [1] | GPR40 and β-arrestin 2 association (ratio co-immunoprecipitated β-arrestin 2 / GPR40) (GPR40) | histological score (Rachmilewitz) for extent of flogosis (DSS-induced colitis; [2]) | histological score (Rachmilewitz) for extent of ulceration (DSS-induced colitis; [2]) | histological score (Rachmilewitz) for flogosis (DSS-induced colitis; [2]) | histological score (Rachmilewitz) for ulceration (DSS-induced colitis; [2]) | composite endoscopic score (DSS-induced colitis; [3]) | endoscopic score: colon thickness (DSS-induced colitis; [3]) | endoscopic score: mucosal surface granularity (DSS-induced colitis; [3]) | endoscopic score: vascular pattern (DSS-induced colitis; [3]) | endoscopic score: visible fibrin (DSS-induced colitis; [3]) | colon length (DSS-induced colitis; DFL23806 90 mg/kg, 5-ASA 60 mg/kg oral once a day, compared to DSS+vehicle) |
| --- | --- | --- | --- | --- | --- | --- | --- | --- | --- | --- | --- | --- | --- | --- | --- | --- |
| Cc1cc(Cl)cc(C)c1NS(=O)(=O)c1cccc(CCCCCCC(=O)O)c1 [DFL23914, 7-(3-(N-(4-chloro-2,6-dimethylphenyl)sulfamoyl)phenyl)heptanoic acid] | 230 ng·h/mL | 189 ng·h/mL | 45 ng/mL | 2 h | 1.2 h |  |  |  |  |  |  |  |  |  |  |  |
| Cc1cc(C(F)(F)F)cc(C)c1NS(=O)(=O)c1cccc(CCCCCCC(=O)O)c1 [DFL23922, 7-(3-(N-(2,6-dimethyl-4-(trifluoromethyl)phenyl)sulfamoyl)phenyl)heptanoic acid] | 217 ng·h/mL | 201 ng·h/mL | 123 ng/mL | 1.4 h | 1.5 h |  |  |  |  |  |  |  |  |  |  |  |
| Cc1cc(F)cc(-c2ccccc2)c1NS(=O)(=O)c1cccc(CCCCCCC(=O)O)c1 [DFL23917, 7-(3-(N-(5-fluoro-3-methyl-[1,1′-biphenyl]-2-yl)sulfamoyl)phenyl)heptanoic acid] | 402 ng·h/mL | 378 ng·h/mL | 135 ng/mL | 0.5 h | 1.3 h |  |  |  |  |  |  |  |  |  |  |  |
| Nc1ccc(O)c(C(=O)O)c1 [5-ASA, 5-aminosalicylic acid, reference compound] |  |  |  |  |  | no increase | significantly reduced the histological score | significantly reduced the histological score | significantly reduced the histological score | significantly reduced the histological score | significantly inhibit chronic experimental colitis | significantly inhibit chronic experimental colitis | significantly inhibit chronic experimental colitis | significantly inhibit chronic experimental colitis | significantly inhibit chronic experimental colitis | significant inhibitory effect |

Now from value to compound, other results behind:

| AUC(0-inf) [1] | AUC(0-t) [1] | Cmax [1] | Tmax [1] | half-life [1] | GPR40 and β-arrestin 2 association (ratio co-immunoprecipitated β-arrestin 2 / GPR40) (GPR40) | Compound | histological score (Rachmilewitz) for extent of flogosis (DSS-induced colitis; [2]) | histological score (Rachmilewitz) for extent of ulceration (DSS-induced colitis; [2]) | histological score (Rachmilewitz) for flogosis (DSS-induced colitis; [2]) | histological score (Rachmilewitz) for ulceration (DSS-induced colitis; [2]) | composite endoscopic score (DSS-induced colitis; [3]) | endoscopic score: colon thickness (DSS-induced colitis; [3]) | endoscopic score: mucosal surface granularity (DSS-induced colitis; [3]) | endoscopic score: vascular pattern (DSS-induced colitis; [3]) | endoscopic score: visible fibrin (DSS-induced colitis; [3]) | colon length (DSS-induced colitis; DFL23806 90 mg/kg, 5-ASA 60 mg/kg oral once a day, compared to DSS+vehicle) |
| --- | --- | --- | --- | --- | --- | --- | --- | --- | --- | --- | --- | --- | --- | --- | --- | --- |
| 571 ng·h/mL | 480 ng·h/mL | 198 ng/mL | 0.4 h | 2.2 h |  | Cc1cc(F)c(-c2ccccc2)cc1NS(=O)(=O)c1cccc(CCCCCCC(=O)O)c1 [DFL23916, 7-(3-(N-(6-fluoro-4-methyl-[1,1′-biphenyl]-3-yl)sulfamoyl)phenyl)heptanoic acid] |  |  |  |  |  |  |  |  |  |  |
| 302 ng·h/mL | 278 ng·h/mL | 113 ng/mL | 1 h | 1.9 h |  | Cc1cc(F)c(-c2cccs2)cc1NS(=O)(=O)c1cccc(CCCCCCC(=O)O)c1 [DFL24102, 7-(3-{[4-fluoro-2-methyl-5-(thiophen-2-yl)phenyl]sulfamoyl}phenyl)heptanoic acid] |  |  |  |  |  |  |  |  |  |  |
